Drawing on patent US20070191367A1, “3-SPIROINDOLIN-2-ONE DERIVATIVES, PREPARATION AND THERAPEUTIC USE THEREOF” (SANOFI-AVENTIS, priority 2004, published 2007), this text covers IC50 for one compound.

The test deals with T1, recombinant human vasopressin V2 receptors (Homo sapiens, UniProt P30518).
T1 construct: expressed in transfected cells; host or cells: CHO cell line (plasma membranes)
Nature of the test: In vitro binding assay, [H3]-AVP displacement at vasopressin V2 receptors. The settings on record: plasma membranes from tissues or CHO cell line; 3.5 nM [H3]-AVP; 45 minutes at 25° C.; read-out: IC50 (concentration of product that inhibits 50% of the specific binding). Here is the method: The affinity of the compounds of the invention for vasopressin V2 receptors was measured in in vitro binding assays, as described in J. Pharmacol. Exp. Ther., (2002), 300, pp. 1122-1130.
Plasma membranes (approximately 20 μg/ml) originating from tissues or the CHO cell line expressing recombinant human vasopressin V2 receptors are incubated for 45 minutes at 25° C. in 200 μl of TRIS-HCl buffer (50 mM; pH 8.2) containing 2 mM of MgCl2, 1 mM of EDTA, 0.1% of BSA, 1 mg/ml of bacitracin and 3.5 nM of [H^3]-AVP. The reaction is stopped by filtration and washing over GF/B filters. The nonspecific binding is determined in the presence of 1 μM of AVP. The compounds of the invention, dissolved beforehand at the concentration of 10^−2 M in DMSO, are tested in a dilution range.
For each concentration, the results are expressed as percentage inhibition of specific binding. An IC50 (concentration of product that inhibits 50% of the specific binding) is determined for each of the products using the “RS1 binding” program (BBN Domain, Cambridge, Mass).

T1 sequence (P30518 whole entry): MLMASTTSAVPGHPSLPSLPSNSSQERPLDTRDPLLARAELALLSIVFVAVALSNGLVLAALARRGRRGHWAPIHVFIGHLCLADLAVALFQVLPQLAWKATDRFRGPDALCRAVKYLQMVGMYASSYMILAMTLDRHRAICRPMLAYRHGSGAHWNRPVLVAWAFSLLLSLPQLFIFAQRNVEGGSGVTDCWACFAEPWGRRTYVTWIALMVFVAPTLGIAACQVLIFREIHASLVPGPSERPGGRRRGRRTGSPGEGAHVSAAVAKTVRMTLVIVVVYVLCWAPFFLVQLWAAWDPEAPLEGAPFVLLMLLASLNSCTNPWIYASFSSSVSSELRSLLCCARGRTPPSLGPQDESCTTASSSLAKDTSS

As for `CCOc1ccc2c(c1)C1(CCC(OCC(=O)N3CCOCC3)CC1)C(=O)N2S(=O)(=O)c1ccc(C(=O)NC(C)(C)C)cc1OC` (stereo not shown) [Example], the IC50 is roughly 7.3 nM.
